ChEMBL document CHEMBL1201862, “PubChem BioAssay data set” (2004)
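The compound was tested at five concentrations on cells cultured in 96-well plates, with a 48-hour exposure period. Here, GI50 denotes the concentration required for 50% inhibition of growth.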 The source made the active and inactive calls. Cut-off read from the data, not from the text of the source: active = GI50 up to about 1.1 µM and inactive = higher.

Tests used:
Test in all cases: NCI-60 cell line screen, 48 h
CCRF-CEM = test system: CCRF-CEM
HCC 2998 = test system: HCC 2998
HL-60 = test system: HL-60
IGROV-1 = test system: IGROV-1
KM-20L2 = test system: KM-20L2
KM12 = test system: KM12
MCF7 = test system: MCF7
NCI/ADR-RES = test system: NCI/ADR-RES
RPMI-8226 = test system: RPMI-8226
SF-268 = test system: SF-268
SK-MEL-28 = test system: SK-MEL-28
SK-MEL-2 = test system: SK-MEL-2
SNB-78 = test system: SNB-78

CCC1CN2CCC1CC2 (centres undefined)
GI50 (CCRF-CEM): > 100 µM (inactive)
GI50 (HCC 2998): > 100 µM (inactive)
GI50 (HL-60): > 100 µM (inactive)
GI50 (IGROV-1): > 100 µM (inactive)
GI50 (KM-20L2): > 100 µM (inactive)
GI50 (KM12): > 100 µM (inactive)
GI50 (MCF7): > 100 µM (inactive)
GI50 (NCI/ADR-RES): > 100 µM (inactive)
GI50 (RPMI-8226): > 100 µM (inactive)
GI50 (SF-268): > 100 µM (inactive)
GI50 (SK-MEL-28): > 100 µM (inactive)
GI50 (SK-MEL-2): > 100 µM (inactive)
GI50 (SNB-78): > 100 µM (inactive)

C[C@H]1[C@@H]2C[C@@H]3O[C@@]34[C@H]3CCC5Cc6nc7c(nc6C[C@@]5(C)[C@]3(O)CC(=O)[C@@]24CO[C@]12OC(C)(C)C[C@@H]2O)CC1CC[C@@H]2C3=C[C@H]4O[C@@]5(OC(C)(CO)C[C@@H]5O)[C@H](C)[C@@]4(O)[C@]3(C)[C@@H](O)CC2[C@]1(C)C7 (some centres undefined)
GI50 (CCRF-CEM): 0.0105 µM (active)
GI50 (HCC 2998): 0.506 µM (active)
GI50 (HL-60): 0.00361 µM (active)
GI50 (IGROV-1): 0.0291 µM (active)
GI50 (KM-20L2): 0.0378 µM (active)
GI50 (KM12): 0.0706 µM (active)
GI50 (MCF7): 0.0345 µM (active)
GI50 (NCI/ADR-RES): > 3.52 µM (inactive)
GI50 (RPMI-8226): 0.00139 µM (active)
GI50 (SF-268): 0.0181 µM (active)
GI50 (SK-MEL-2): 0.0239 µM (active)
GI50 (SNB-78): 0.00792 µM (active)

COC(=O)[C@@H]1c2cc3c(c(O)c2[C@@H](OC)C[C@@]1(C)O)C(=O)c1c(O)cc2c(c1C3=O)OC1O[C@@]2(C)[C@H](O)[C@@H](N(C)C)[C@@H]1O
GI50 (CCRF-CEM): 0.273 µM (active)
GI50 (HCC 2998): 0.251 µM (active)
GI50 (HL-60): 0.142 µM (active)
GI50 (IGROV-1): 0.291 µM (active)
GI50 (KM-20L2): 0.175 µM (active)
GI50 (KM12): 0.379 µM (active)
GI50 (MCF7): 2.72 µM (inactive)
GI50 (NCI/ADR-RES): 2.06 µM (inactive)
GI50 (RPMI-8226): 0.192 µM (active)
GI50 (SF-268): 0.528 µM (active)
GI50 (SK-MEL-28): 0.667 µM (active)
GI50 (SK-MEL-2): 0.28 µM (active)
GI50 (SNB-78): 0.552 µM (active)

Cn1c2ccccc2c(=O)c2c(O)cc3c(c21)C=CC(C)(C)O3 [NORACRONYCINE]
GI50 (CCRF-CEM): > 25 µM (inactive)
GI50 (HCC 2998): > 25 µM (inactive)
GI50 (HL-60): > 11.1 µM (inactive)
GI50 (IGROV-1): > 25 µM (inactive)
GI50 (KM-20L2): > 10.2 µM (inactive)
GI50 (KM12): > 25 µM (inactive)
GI50 (MCF7): > 25 µM (inactive)
GI50 (NCI/ADR-RES): > 25 µM (inactive)
GI50 (RPMI-8226): > 25 µM (inactive)
GI50 (SF-268): > 25 µM (inactive)
GI50 (SK-MEL-28): > 25 µM (inactive)
GI50 (SK-MEL-2): > 25 µM (inactive)
GI50 (SNB-78): > 25 µM (inactive)

O=C(O)CCCCCCCCC(=O)O [SEBACIC ACID]
GI50 (CCRF-CEM): 300 µM (inactive)
GI50 (HCC 2998): 50 µM (inactive)
GI50 (HL-60): 316 µM (inactive)
GI50 (IGROV-1): > 500 µM (inactive)
GI50 (KM-20L2): > 50 µM (inactive)
GI50 (KM12): > 500 µM (inactive)
GI50 (MCF7): > 377 µM (inactive)
GI50 (NCI/ADR-RES): > 79.3 µM (inactive)
GI50 (RPMI-8226): > 500 µM (inactive)
GI50 (SF-268): > 500 µM (inactive)
GI50 (SK-MEL-28): > 500 µM (inactive)
GI50 (SK-MEL-2): > 500 µM (inactive)
GI50 (SNB-78): > 500 µM (inactive)
